We go through 3 compounds from ChEMBL document CHEMBL5365514, “Redefining Cancer Therapy: Toward BCL-XL/BCL-2 Dual Inhibitors with Diminished Platelet Toxicity” (ACS Med Chem Lett, 2023).

For one test, the system named is RS4-11. The test can be described thus: Antiproliferative activity against human RS4-11 cells assessed as inhibition of cell growth measured after 48 hrs by MTS assay. The test is classed as functional, cell-based. As to conditions: RS4-11, 48 h.
The next test has as its system MOLT-4. Nature of the test: Antiproliferative activity against human MOLT-4 cells assessed as inhibition of cell growth measured after 48 hrs by MTS assay. As to conditions: MOLT-4, 48 h. It counts as functional, cell-based.

Molecules are shown by their SMILES.

Take `Cc1ncsc1-c1ccc([C@H](C)NC(=O)[C@@H]2C[C@@H](O)CN2C(=O)[C@@H](NC(=O)CCCCC(=O)N2CCN(C3CCN(C[C@]4(C)CCC(c5ccc(Cl)cc5)=C(CN5CCN(c6ccc(C(=O)NS(=O)(=O)c7ccc(N[C@H](CCN8CCCOCC8)CSc8ccccc8)c(S(=O)(=O)C(F)(F)F)c7)cc6)CC5)C4)CC3)CC2)C(C)(C)C)cc1`: the IC50 in the test with RS4-11 and in the test with MOLT-4 was under 20 nM in each case.

On to `Cc1ncsc1-c1ccc([C@H](C)NC(=O)[C@@H]2C[C@@H](O)CN2C(=O)[C@@H](NC(=O)CN(C)CC(=O)N2CCC(C3CCN(C[C@]4(C)CCC(c5ccc(Cl)cc5)=C(CN5CCN(c6ccc(C(=O)NS(=O)(=O)c7ccc(N[C@H](CCN8CCCOCC8)CSc8ccccc8)c(S(=O)(=O)C(F)(F)F)c7)cc6)CC5)C4)CC3)CC2)C(C)(C)C)cc1`, for which the IC50 in the test on RS4-11 and with MOLT-4 was under 20 nM in each case.

Consider `Cc1ncsc1-c1ccc([C@H](C)NC(=O)[C@@H]2C[C@@H](O)CN2C(=O)[C@@H](NC(=O)CN(C)CCC(=O)N2CCC(C3CCN(C[C@]4(C)CCC(c5ccc(Cl)cc5)=C(CN5CCN(c6ccc(C(=O)NS(=O)(=O)c7ccc(N[C@H](CCN8CCCOCC8)CSc8ccccc8)c(S(=O)(=O)C(F)(F)F)c7)cc6)CC5)C4)CC3)CC2)C(C)(C)C)cc1`, for which the half-inhibitory concentration (IC50) with RS4-11 and in the test on MOLT-4 was under 20 nM throughout.
